Source: patent publication US4638047A, “Enzyme inhibition” (priority 1983, dated 1987)
Read-outs that look alike come from different tables or passages of the source. Residues, ends and D or L forms follow the SMILES beside them.

Experiments:
human thrombin = biological target: T1, human thrombin (Homo sapiens, UniProt P00734); assay: Inhibition of human thrombin hydrolysing the chromogenic substrate S-2238 (Ki by Dixon plot); type: biochemical
T1 construct: forms a lipoprotein complex with prothrombin (factor II) and cleaves it to form thrombin (factor IIa) itself
Method: (a) Inhibition of human thrombin hydrolysing the chromogenic substrate S-2238 (for details of the method, see M. F. Scully and V. V. Kakkar, Clin. Chim. Acta 1977.79.595). Series of measurements were carried out using a number of different inhibitor concentrations and at least two different substrate concentrations. The inhibitory constant Ki was determined graphically, using a Dixon plot (M. Dixon, Biochem. J. 1953.55.170)

[1] = In vivo half life in plasma
Method: (§1) These tests were carried out in rabbits, using between 0.1-4 mg/Kg of the inhibitor and comparing the KCCT or the thrombin clotting time in blood samples taken before and at various time intervals after the administration of inhibitors.

[2] = rabbit
Method: as §1

| Ki (human thrombin) | in vivo half life in plasma [1] | in vivo half life in plasma [2] | Compound |
| --- | --- | --- | --- |
| 68 µM |  |  | CCNC(=O)[C@@H]1CCCN1C(=O)CCC(=O)[C@@H](CCCNC(=N)N)NC(=O)[C@@H]1CCCN1C(=O)[C@@H](Cc1ccccc1)NC(=O)OC(C)(C)C [Example H-170] |
| 112 µM |  |  | CC(C)(C)OC(=O)N[C@H](Cc1ccccc1)C(=O)N1CCC[C@H]1C(=O)N[C@@H](CCCNC(=N)N)CNCC(=O)N1CCC[C@H]1C(=O)O [Example H-172] |
| 3 µM |  |  | CCNC(=O)[C@@H](NC(=O)[C@H](CCCNC(=N)N)NC(=O)[C@@H]1CCCN1C(=O)CCC(=O)[C@H](CCCNC(=N)N)NC(=O)[C@@H]1CCCN1C(=O)[C@H](N)Cc1ccccc1)C(C)C [Example H-200] (HELM PEPTIDE1{[dF].P.[N=C(N)NCCC[C@H](N[*:1])C(=O)CCC(=O)[*:2]].P.R.V.[CCN[*:1]]}$$$$V2.0) |
|  | 15 min |  | heparin |
| 6 µM |  | 18 min | CCNC(=O)[C@@H]1CCCN1C(=O)CCC(=O)[C@H](CCCNC(=N)N)NC(=O)[C@@H]1CCCN1C(=O)[C@H](N)Cc1ccccc1 [Example H-179] |
